ChEMBL document CHEMBL1201862, “PubChem BioAssay data set” (2004)
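Test compounds were applied to cells in 96-well plates for 48 hours at 5 doses. GI50 = concentration required for 50% inhibition of growth.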 Activity calls are given as the source filed them. Cut-off read from the data, not from the text of the source: active = GI50 up to about 1.1 µM and inactive = higher.

Legend:
Assay in all cases: NCI tumour cell line growth inhibition, 48 h
NCI-H226 = tested on: NCI-H226
SK-MEL-28 = tested on: SK-MEL-28
MOLT-4 = tested on: MOLT-4
SF-268 = tested on: SF-268
NCI-H23 = tested on: NCI-H23
SF-295 = tested on: SF-295
HOP-62 = tested on: HOP-62
MDA-MB-231 = tested on: MDA-MB-231
UACC-62 = tested on: UACC-62
IGROV-1 = tested on: IGROV-1
ACHN = tested on: ACHN
SNB-19 = tested on: SNB-19
786-0 = tested on: 786-0
EKVX = tested on: EKVX
UACC-257 = tested on: UACC-257
UO-31 = tested on: UO-31
NCI/ADR-RES = tested on: NCI/ADR-RES
RXF 393 = tested on: RXF 393
SN12C = tested on: SN12C
K562 = tested on: K562
CCRF-CEM = tested on: CCRF-CEM
M14 = tested on: M14
MCF7 = tested on: MCF7
SF-539 = tested on: SF-539
OVCAR-3 = tested on: OVCAR-3
NCI-H522 = tested on: NCI-H522
NCI-H460 = tested on: NCI-H460
A549 = tested on: A549
HCT-15 = tested on: HCT-15
SNB-75 = tested on: SNB-75
OVCAR-4 = tested on: OVCAR-4
SK-OV-3 = tested on: SK-OV-3
KM12 = tested on: KM12
SW-620 = tested on: SW-620
LOX IMVI = tested on: LOX IMVI
OVCAR-8 = tested on: OVCAR-8
TK-10 = tested on: TK-10
HOP-92 = tested on: HOP-92
U-251 = tested on: U-251
SK-MEL-2 = tested on: SK-MEL-2
SR = tested on: SR
HT-29 = tested on: HT-29
HCT-116 = tested on: HCT-116
HCC 2998 = tested on: HCC 2998
PC-3 = tested on: PC-3
CAKI-1 = tested on: CAKI-1
SK-MEL-5 = tested on: SK-MEL-5
RPMI-8226 = tested on: RPMI-8226
BT-549 = tested on: BT-549
Malme-3M = tested on: Malme-3M
Hs-578T = tested on: Hs-578T
OVCAR-5 = tested on: OVCAR-5
HL-60 = tested on: HL-60
T47D = tested on: T47D
MDA-N = tested on: MDA-N
MDA-MB-435 = tested on: MDA-MB-435
A498 = tested on: A498
DU-145 = tested on: DU-145
COLO 205 = tested on: COLO 205

Cc1cc(Br)cc(C)c1NC(=O)C(=O)Nn1c(S)nc2ccccc2c1=O
GI50 (NCI-H226): > 100 µM (inactive) | GI50 (SK-MEL-28): > 100 µM (inactive) | GI50 (MOLT-4): > 100 µM (inactive) | GI50 (SF-268): > 100 µM (inactive) | GI50 (NCI-H23): > 100 µM (inactive) | GI50 (SF-295): > 100 µM (inactive) | GI50 (HOP-62): > 100 µM (inactive) | GI50 (MDA-MB-231): > 100 µM (inactive) | GI50 (UACC-62): > 100 µM (inactive) | GI50 (IGROV-1): > 100 µM (inactive) | GI50 (ACHN): > 100 µM (inactive) | GI50 (SNB-19): 78.9 µM (inactive) | GI50 (786-0): > 100 µM (inactive) | GI50 (EKVX): > 100 µM (inactive) | GI50 (UACC-257): > 100 µM (inactive) | GI50 (UO-31): > 100 µM (inactive) | GI50 (NCI/ADR-RES): > 100 µM (inactive) | GI50 (RXF 393): > 100 µM (inactive) | GI50 (SN12C): > 100 µM (inactive) | GI50 (K562): > 100 µM (inactive) | GI50 (CCRF-CEM): > 100 µM (inactive) | GI50 (M14): > 100 µM (inactive) | GI50 (MCF7): > 100 µM (inactive) | GI50 (SF-539): > 100 µM (inactive) | GI50 (OVCAR-3): > 100 µM (inactive) | GI50 (NCI-H522): > 100 µM (inactive) | GI50 (NCI-H460): > 100 µM (inactive) | GI50 (A549): > 100 µM (inactive) | GI50 (HCT-15): > 100 µM | GI50 (SNB-75): > 100 µM (inactive) | GI50 (OVCAR-4): 33.8 µM (inactive) | GI50 (SK-OV-3): > 100 µM (inactive) | GI50 (KM12): > 100 µM (inactive) | GI50 (SW-620): > 100 µM (inactive) | GI50 (LOX IMVI): > 100 µM (inactive) | GI50 (OVCAR-8): > 100 µM (inactive) | GI50 (TK-10): > 100 µM (inactive) | GI50 (HOP-92): > 100 µM (inactive) | GI50 (U-251): > 100 µM (inactive) | GI50 (SK-MEL-2): > 100 µM (inactive) | GI50 (SR): > 100 µM (inactive) | GI50 (HT-29): > 100 µM (inactive) | GI50 (HCT-116): > 100 µM (inactive) | GI50 (HCC 2998): > 100 µM (inactive) | GI50 (PC-3): > 100 µM (inactive) | GI50 (CAKI-1): > 100 µM (inactive) | GI50 (SK-MEL-5): > 100 µM (inactive) | GI50 (RPMI-8226): > 100 µM (inactive) | GI50 (BT-549): > 100 µM (inactive) | GI50 (Malme-3M): > 100 µM (inactive) | GI50 (Hs-578T): > 100 µM (inactive) | GI50 (OVCAR-5): > 100 µM (inactive) | GI50 (HL-60): > 100 µM (inactive) | GI50 (T47D): > 100 µM (inactive) | GI50 (MDA-N): > 100 µM (inactive) | GI50 (MDA-MB-435): > 100 µM (inactive) | GI50 (A498): > 100 µM (inactive)

NC(=S)N1N=C(c2ccc3c(c2)CCC3)CC1c1ccccc1 (stereo not given)
GI50 (DU-145): 23 µM (inactive) | GI50 (NCI-H226): 34.2 µM (inactive) | GI50 (SK-MEL-28): 41.5 µM (inactive) | GI50 (MOLT-4): 8.15 µM (inactive) | GI50 (SF-268): 30.8 µM (inactive) | GI50 (NCI-H23): 25.1 µM (inactive) | GI50 (SF-295): 15.7 µM (inactive) | GI50 (HOP-62): 24.9 µM (inactive) | GI50 (UACC-62): 17.6 µM (inactive) | GI50 (IGROV-1): 15 µM (inactive) | GI50 (ACHN): 27.9 µM (inactive) | GI50 (SNB-19): 34.6 µM (inactive) | GI50 (786-0): 22.6 µM (inactive) | GI50 (EKVX): 5.08 µM (inactive) | GI50 (UACC-257): 21.4 µM (inactive) | GI50 (UO-31): 29.9 µM (inactive) | GI50 (NCI/ADR-RES): 15.6 µM (inactive) | GI50 (RXF 393): 2.88 µM (inactive) | GI50 (SN12C): 24.7 µM (inactive) | GI50 (K562): 13.1 µM (inactive) | GI50 (CCRF-CEM): 23.1 µM (inactive) | GI50 (M14): 26.7 µM (inactive) | GI50 (MCF7): 8.45 µM (inactive) | GI50 (SF-539): 18.3 µM (inactive) | GI50 (OVCAR-3): 17.4 µM (inactive) | GI50 (NCI-H522): 6.27 µM (inactive) | GI50 (NCI-H460): 22.2 µM (inactive) | GI50 (A549): 23.4 µM (inactive) | GI50 (HCT-15): 13.8 µM | GI50 (SNB-75): 18.1 µM (inactive) | GI50 (OVCAR-4): 7.18 µM (inactive) | GI50 (SK-OV-3): 28.6 µM (inactive) | GI50 (KM12): 11.4 µM (inactive) | GI50 (SW-620): 33.8 µM (inactive) | GI50 (LOX IMVI): 31.5 µM (inactive) | GI50 (OVCAR-8): 28.3 µM (inactive) | GI50 (COLO 205): 18.3 µM (inactive) | GI50 (TK-10): 18.1 µM (inactive) | GI50 (HOP-92): 23.4 µM (inactive) | GI50 (U-251): 20.4 µM (inactive) | GI50 (SK-MEL-2): 13.7 µM (inactive) | GI50 (SR): 25.3 µM (inactive) | GI50 (HT-29): 16.4 µM (inactive) | GI50 (HCT-116): 22 µM (inactive) | GI50 (HCC 2998): 16.1 µM (inactive) | GI50 (PC-3): 19.6 µM (inactive) | GI50 (CAKI-1): 21.3 µM (inactive) | GI50 (SK-MEL-5): 12.8 µM (inactive) | GI50 (RPMI-8226): 13.6 µM (inactive) | GI50 (BT-549): 22.5 µM (inactive) | GI50 (Malme-3M): 22.6 µM (inactive) | GI50 (Hs-578T): 6.12 µM (inactive) | GI50 (OVCAR-5): 32.2 µM (inactive) | GI50 (HL-60): 7.93 µM (inactive) | GI50 (T47D): 1.64 µM (inactive) | GI50 (MDA-N): 22.9 µM (inactive) | GI50 (MDA-MB-435): 20.2 µM (inactive) | GI50 (A498): 12.5 µM (inactive)
